Measurements reported in patent publication US10640507B2, “PBD antibacterial agents” (KING'S COLLEGE LONDON, priority 2015, dated 2020).
In brackets after ≈: the same amount, converted by molar mass. Read-outs that look alike come from different tables or passages of the source.

Assays:
[1] = test system: A. baumannii NCTC 13302; assay: General MIC protocol, Gram negative; assay type: cell-based; conditions: Acinetobacter baumannii, NCTC13302
Outline: (§1)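 Broth microdilution in tryptic soy broth used two-fold serial dilutions from a top final concentration of 32 μg/ml and a starting inoculum of 5×10^5 bacteria/ml. Plates stood 20 h at 37 °C unless specified elsewhere. Growth was judged by OD600.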

[2] = test system: A. baumannii UKA7; assay: General MIC protocol, Gram negative; assay type: cell-based; conditions: Acinetobacter baumannii
Outline: as §1

[3] = test system: B. multivorans C1962 (LMG 16665); assay: General MIC protocol, Gram negative; assay type: cell-based; conditions: Burkholderia multivorans, LMG16665
Outline: as §1

[4] = test system: B. cepacia LMG 17997; assay: General MIC protocol, Gram negative; assay type: cell-based; conditions: Burkholderia cepacia, LMG17997
Outline: as §1

[5] = test system: B. cepacia NCTC 10743; assay: General MIC protocol, Gram negative; assay type: cell-based; conditions: Burkholderia cepacia, NCTC10743
Outline: as §1

[6] = test system: A. baumannii UKA2; assay: General MIC protocol, Gram negative; assay type: cell-based; conditions: Acinetobacter baumannii
Outline: as §1

[7] = test system: K. pneumonia NCTC 46704; assay: General MIC protocol, Gram negative; assay type: cell-based; conditions: Klebsiella pneumoniae, NCTC46704
Outline: as §1

[8] = test system: A. baumannii ADP1; assay: General MIC protocol, Gram negative; assay type: cell-based; conditions: Acinetobacter baumannii
Outline: as §1

[9] = test system: B. cenocepa K56-2; assay: General MIC protocol, Gram negative; assay type: cell-based
Outline: as §1

[10] = test system: B. cepacia ATCC 17765; assay: General MIC protocol, Gram negative; assay type: cell-based; conditions: Burkholderia cepacia, ATCC17765
Outline: as §1

[11] = test system: B. cepacia CEP509 (LMG 18821); assay: General MIC protocol, Gram negative; assay type: cell-based; conditions: Burkholderia cepacia, LMG18821
Outline: as §1

[12] = test system: B. multivorans C1576 (LMG 16660); assay: General MIC protocol, Gram negative; assay type: cell-based; conditions: Burkholderia multivorans, LMG16660
Outline: as §1

[13] = test system: A. baumannii NCTC 13424; assay: General MIC protocol, Gram negative; assay type: cell-based; conditions: Acinetobacter baumannii, NCTC13424
Outline: as §1

[14] = test system: A. baumannii W1; assay: General MIC protocol, Gram negative; assay type: cell-based; conditions: Acinetobacter baumannii
Outline: as §1

[15] = test system: NCTC 13424; assay: Effect of efflux pump inhibitors (EPIs) on MIC; assay type: cell-based, A. bauamnnii
Procedure: (§2) 1. Grow up cultures of bacterial strains to be tested overnight.
(§3) 2. Dilute down overnight cultures to concentration of 1×10^6 bacteria/ml (OD0.01) in Tryptic soy broth (TSB).
(§4) 3. Add 100 μl of TSB media to column 2-column 12 in 96 well plate (keeping column 1 clear).
(§5) 4. Make up compound to a concentration of 64 μg/ml in water.
(§6) 5. Add 100 μl of antibiotic solution to the 1st and 2nd columns.
(§7) 6. Using a multichannel pipette take 100 μl from the 2nd column wells and pipette into 3rd column wells and repeat down the 96 well plate (remember to include controls i.e. uninfected media and media with no antibiotic).
(§8) 7. To each well (except uninfected control row H) add 50 μl/well of EPI at 4× final concentration in TSB.
(§9) 9. In wells used to test the effect of the EPI carbonyl cyanide 3-chlorophenylhydrazone (CCCP) the CCCP is added at 10 μg/ml final concentration.
(§10) 10. In wells used to test the effect of the EPI phenylalanine-arginine β-naphthylamide (PABN) the PABN is added at 25 μg/ml final concentration.
(§11) 11. In wells used to test the effect of the PABN+Mg, the PABN is added at 25 μg/ml final concentration, with 1 mM MgSO4 in TSB.
(§12) 12. Wrap plate with parafilm to prevent evaporation.
(§13) 13. Leave at desired temperature (37° C. unless specified elsewhere) for 20 hours.
(§14) 14. Next day check plates for growth and measure optical density (i.e. absorbance) at a wavelength of 600 nm (OD600).
(§15) Compound KMR-14-33 was tested against a range of bacterial species using the above protocol. Compound PP-A148 was also tested against a more limited range of bacterial species using the above protocol. For KMR-14-33 measurements were carried out for the compound alone, for the compound plus CCCP, for the compound plus PABN and for the compound plus PABN and plus Mg. For PP-A148 measurements were carried out for the compound alone and for the compound plus PABN.

[16] = test system: NCTC 13438; assay: Effect of efflux pump inhibitors (EPIs) on MIC; assay type: cell-based, K. pneumoniae; conditions: for MIC: Klebsiella pneumoniae
Procedure: as §2, §3, §4, §5, §6, §7, §8, §9, §10, §11, §12, §13, §14, §15

[17] = test system: Klebsiella KP 342; assay: General MIC protocol, Gram negative; assay type: cell-based; conditions: Klebsiella, KP342
Procedure: (§16) General Minimum Inhibitory Concentration (MIC) Protocol
as §2, §3, §4
(§17) 4. Make up compound to a concentration of 64 μg/ml in water (or alternatively to twice the chosen maximum concentration to be tested).
as §6
(§18) 6. Using a multichannel pipette take 100 μl from the 2nd column wells and pipette into 3rd column wells and repeat down the 96 well plate (remembering to include controls i.e. uninfected media and media with no antibiotic).
(§19) 7. To each well (except uninfected control row H) add 100 μl of bacterially infected media at a concentration of 1×10^6/ml.
(§20) 8. This dilutes down the concentration of the antibiotic by half (top dose is therefore 32 μg/ml in column 1) and also gives you a starting bacterial concentration of 5×10^5/ml.
(§21) 9. Wrap plate with parafilm to prevent evaporation.
(§22) 10. Leave at desired temperature (37° C. unless specified elsewhere) for 20 hours.
(§23) 11. Next day check plates for growth and measure optical density (i.e. absorbance) at a wavelength of 600 nm (OD600).
(§24) An example of such a plate is shown in FIG. 1 where column A represents wells that receive the top dose 100 μl; column B represents wells that receive the top dose 100 μl+100 μl TSB; and column C represents wells that receive 100 μl TSB. Row H which is marked by a box labelled D represents a blank where the cells receive no bacteria.
The minimum inhibitory concentration (MIC) was measured using the general MIC protocol given above.

[18] = test system: resistant mutants of KP 13438; assay: MIC following resistance development; assay type: cell-based, Klebsiella; conditions: Klebsiella, OFKP13438, read-out: MIC of resistant mutants (in brackets)
Procedure: as §16, §2, §3, §4, §17, §6, §18, §19, §20, §21, §22, §23, §24
(§25) The MIC of PP-A418 and colistin against the strains used in the time kill analysis of Example 31 following resistance development were measured. The MIC was measured using the general MIC protocol given above. The results are given in Table 14 below where the MIC values of resistant mutants are shown in the brackets.

[19] = test system: resistant mutants of KP 16; assay: MIC following resistance development; assay type: cell-based, Klebsiella; conditions: Klebsiella, OFKP16, read-out: MIC of resistant mutants (in brackets)
Procedure: as §16, §2, §3, §4, §17, §6, §18, §19, §20, §21, §22, §23, §24, §25

COc1cc2c(cc1OCCCC(=O)Nc1cc(C(=O)Nc3ccc4sc(C(=O)N(C)C)cc4c3)n(C)c1)N=C[C@@H]1CCCN1C2=O [KMR-14-33, (S)—N-(2-(dimethylcarbamoyl)benzo[b]thiophen-5-yl)-4-(4-((7-methoxy-5-oxo-2,3,5,11a-tetrahydro-1H-benzo[e]pyrrolo[1,2-a][1,4]-diazepin-8-yl)oxy)butanamido)-1-methyl-1H-pyrrole-2-carboxamide]
MIC [1]: 0.25 µg/mL (≈ 0.381 µM) | MIC [2]: 0.5 µg/mL (≈ 0.761 µM) | MIC [3]: 2 µg/mL (≈ 3.05 µM) | MIC [4]: 0.125 µg/mL (≈ 0.19 µM) | MIC [5]: 1 to 2 µg/mL (≈ 1.52 to 3.05 µM) | MIC [6]: 0.5 µg/mL (≈ 0.761 µM) | MIC [7]: 1 µg/mL (≈ 1.52 µM) | MIC [8]: 0.125 µg/mL (≈ 0.19 µM) | MIC [9]: 2 µg/mL (≈ 3.05 µM) | MIC [10]: 0.125 µg/mL (≈ 0.19 µM) | MIC [11]: 2 µg/mL (≈ 3.05 µM) | MIC [12]: 1 µg/mL (≈ 1.52 µM) | MIC [13]: 0.5 µg/mL (≈ 0.761 µM) | MIC [14]: 1 µg/mL (≈ 1.52 µM) | +PABN MIC ([15]; NCTC 13424, PABN at 25 μg/ml): 0.125 µg/mL | +PABN + Mg MIC ([15]; NCTC 13424, PABN at 25 μg/ml with 1 mM MgSO4): 0.25 µg/mL | MIC ([15]; read-out: +CCCP MIC): 0.25 µg/mL (≈ 0.381 µM) | MIC ([15]; read-out: Control with no EPI MIC): 0.5 µg/mL (≈ 0.761 µM) | MIC ([16]; NCTC13438, read-out: +CCCP MIC): 0.5 µg/mL (≈ 0.761 µM) | MIC ([16]; NCTC13438, read-out: Control with no EPI MIC): 0.5 µg/mL (≈ 0.761 µM) | +PABN MIC ([16]; NCTC 13438, PABN at 25 μg/ml): 0.125 µg/mL | +PABN + Mg MIC ([16]; NCTC 13438, PABN at 25 μg/ml with 1 mM MgSO4): 0.25 µg/mL

COc1cc2c(cc1OCCCC(=O)Nc1cc(C(=O)Nc3ccc4oc(C(=O)N5CCSCC5)cc4c3)n(C)c1)N=C[C@@H]1CCCN1C2=O [PP-A148, (S)-4-(4-((7-methoxy-5-oxo-2,3,5,11a-tetrahydro-1H-benzo-[e]pyrrolo[1,2-a][1,4]diazepin-8-yl)oxy)butanamido)-1-methyl-N-(2-(thiomorpholine-4-carbonyl)benzofuran-5-yl)-1H-pyrrole-2-carboxamide]
MIC [17]: 4 to 8 µg/mL (≈ 5.72 to 11.4 µM) | MIC [18]: 64 µg/mL | MIC [19]: 4 to 8 µg/mL
